Test results published in PMC10150354, “Linearization of the Brevicidine and Laterocidine Lipopeptides Yields Analogues That Retain Full Antibacterial Activity” (Journal of Medicinal Chemistry, 2023).
≈ marks a conversion by molar mass, not a printed value. *1 amine or outer side, *2 acyl side, *3 side chain or, on linkers, in order; H or OH if unused. Where a SMILES comes first, the peptide text is derived from it. [ ]: non-standard residue; d: D form. The star is where a group is joined. ξ: configuration not given here. X1 = C[C@@H](N=[N+]=[N-])[C@H](N[*:1])C(=O)[*:2]; Hexanoyl(4ξ-Me) = CCC(C)CCC(=O)*; dOrn = NCCC[C@@H](N)C(=O)O; Orn = NCCC[C@H](N)C(=O)O; OAll = C=CCO*

Columns and labels:
E. coli (MCR-1) = type: cell-based, Escherichia coli; settings: microbroth dilution per CLSI, MHB, 18 h at 37 °C, visual inspection, three technical replicates, E. coli 25922 carrying mcr-1
Summary of the method: (§1)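 CLSI broth microdilution in MHB, polypropylene plates; log-phase bacteria (OD600 ~0.5, grown in TSB, with kanamycin for the E. coli ATCC 25922 MCR-1 strain) added at 2 × 10^5 CFU/mL. Read visually after 18 h at 37 °C with shaking; MIC = lowest concentration preventing visible growth, three technical replicates.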

E. coli ATCC 25922 = type: cell-based, Escherichia coli; settings: for MIC (µg/mL) against E. coli (ATCC 25922): (Supplement 2); for Antibacterial activity (MIC) E. coli ATCC 25922: microbroth dilution per CLSI, MHB, 18 h at 37 °C, visual inspection, three technical replicates
Summary of the method: as §1

K. pneumoniae ATCC 13883 = type: cell-based, Klebsiella pneumoniae; settings: microbroth dilution per CLSI, MHB, 18 h at 37 °C, visual inspection, three technical replicates
Summary of the method: as §1

A. baumannii ATCC 17961 = type: cell-based, Acinetobacter baumannii; settings: microbroth dilution per CLSI, MHB, 18 h at 37 °C, visual inspection, three technical replicates
Summary of the method: as §1

P. aeruginosa PAO1 = type: cell-based, Pseudomonas aeruginosa; settings: microbroth dilution per CLSI, MHB, 18 h at 37 °C, visual inspection, three technical replicates
Summary of the method: as §1

S. aureus USA300 = type: cell-based, Staphylococcus aureus; settings: microbroth dilution per CLSI, MHB, 18 h at 37 °C, visual inspection, three technical replicates
Summary of the method: as §1

Structure (SMILES)	Antibacterial activity (MIC) E. coli (MCR-1) (E. coli (MCR-1))	MIC (µg/mL) against E. coli (ATCC 25922) (E. coli ATCC 25922)	Antibacterial activity (MIC) E. coli ATCC 25922 (E. coli ATCC 25922)	Antibacterial activity (MIC) K. pneumoniae ATCC 13883 (K. pneumoniae ATCC 13883)	Antibacterial activity (MIC) A. baumannii ATCC 17961 (A. baumannii ATCC 17961)	Antibacterial activity (MIC) P. aeruginosa PAO1 (P. aeruginosa PAO1)	Antibacterial activity (MIC) S. aureus USA300 (S. aureus USA300)
CCC(C)CCC(=O)N[C@H](CC(N)=O)C(=O)N[C@H](Cc1ccc(O)cc1)C(=O)N[C@H](Cc1c[nH]c2ccccc12)C(=O)N[C@H](CCCN)C(=O)N[C@@H](CCCN)C(=O)NCC(=O)N[C@H](CCCN)C(=O)N[C@@H](Cc1c[nH]c2ccccc12)C(=O)N[C@@H](CCC(N)=O)C(=O)N[C@H](C(=O)NCC(N)=O)[C@@H](C)CC (stereo partly drawn) [Δ12LB (Gln9)-NH2 (59)] ({Hexanoyl(4ξ-Me)}-[dN][dY][dW][dOrn][Orn]G[dOrn]WQIG-NH2)	8 µg/mL	8 µg/mL (≈ 5.42 µM)	8 µg/mL	16 µg/mL	16 µg/mL	2 µg/mL	>32 µg/mL
C=CCOC(=O)CC[C@H](NC(=O)[C@H](Cc1c[nH]c2ccccc12)NC(=O)[C@@H](CCCN)NC(=O)CNC(=O)[C@H](CCCN)NC(=O)[C@@H](CCCN)NC(=O)[C@@H](Cc1c[nH]c2ccccc12)NC(=O)[C@@H](Cc1ccc(O)cc1)NC(=O)[C@@H](CC(N)=O)NC(=O)CCC(C)CC)C(=O)N[C@H](C(=O)NCC(N)=O)[C@@H](C)CC (stereo partly drawn) [Δ12LB (Glu[OAll]9)-NH2 (62)] ({Hexanoyl(4ξ-Me)}-[dN][dY][dW][dOrn][Orn]G[dOrn]WE(OAll)IG-NH2)	8 µg/mL	4 µg/mL (≈ 2.64 µM)	4 µg/mL	4 µg/mL	8 µg/mL	2 µg/mL	>32 µg/mL
CCC(C)CCC(=O)N[C@H](CC(N)=O)C(=O)N[C@H](Cc1ccc(O)cc1)C(=O)N[C@H](Cc1c[nH]c2ccccc12)C(=O)N[C@H](CCCN)C(=O)N[C@@H](CCCN)C(=O)NCC(=O)N[C@H](CCCN)C(=O)N[C@@H](Cc1c[nH]c2ccccc12)C(=O)N[C@@H](CC(C)C)C(=O)N[C@H](C(=O)NCC(N)=O)[C@@H](C)CC (stereo partly drawn) [Δ12LB (Leu9)-NH2 (53)] ({Hexanoyl(4ξ-Me)}-[dN][dY][dW][dOrn][Orn]G[dOrn]WLIG-NH2)	4 µg/mL	8 µg/mL (≈ 5.47 µM)	4 µg/mL	4 µg/mL	4 µg/mL	8 µg/mL	>32 µg/mL
CCC(C)CCC(=O)N[C@H](CC(N)=O)C(=O)N[C@H](Cc1ccc(O)cc1)C(=O)N[C@H](Cc1c[nH]c2ccccc12)C(=O)N[C@H](CCCN)C(=O)N[C@@H](CCCN)C(=O)NCC(=O)N[C@H](CCCN)C(=O)N[C@@H](Cc1c[nH]c2ccccc12)C(=O)N[C@H](C(=O)N[C@H](C(=O)NCC(N)=O)[C@@H](C)CC)[C@@H](C)N=[N+]=[N-] (stereo partly drawn) [Δ12LB (MeAbu9)-NH2 (60)] ({Hexanoyl(4ξ-Me)}-[dN][dY][dW][dOrn][Orn]G[dOrn]W[X1]IG-NH2)	4 µg/mL	8 µg/mL (≈ 5.42 µM)	4 µg/mL	2 µg/mL	2 µg/mL	4 µg/mL	>32 µg/mL
CCC(C)CCC(=O)N[C@H](CC(N)=O)C(=O)N[C@H](Cc1ccc(O)cc1)C(=O)N[C@H](Cc1c[nH]c2ccccc12)C(=O)N[C@H](CCCN)C(=O)N[C@@H](CCCN)C(=O)NCC(=O)N[C@H](CCCN)C(=O)N[C@@H](Cc1c[nH]c2ccccc12)C(=O)N[C@@H](CCSC)C(=O)N[C@H](C(=O)NCC(N)=O)[C@@H](C)CC (stereo partly drawn) [Δ12LB (Met9)-NH2 (55)] ({Hexanoyl(4ξ-Me)}-[dN][dY][dW][dOrn][Orn]G[dOrn]WMIG-NH2)	4 µg/mL	2 µg/mL (≈ 1.35 µM)	4 µg/mL	4 µg/mL	4 µg/mL	4 µg/mL	>32 µg/mL
CCC(C)CCC(=O)N[C@H](CC(N)=O)C(=O)N[C@H](Cc1ccc(O)cc1)C(=O)N[C@H](Cc1c[nH]c2ccccc12)C(=O)N[C@H](CCCN)C(=O)N[C@@H](CCCN)C(=O)NCC(=O)N[C@H](CCCN)C(=O)N[C@@H](Cc1c[nH]c2ccccc12)C(=O)N[C@@H](Cc1c[nH]c2ccccc12)C(=O)N[C@H](C(=O)NCC(N)=O)[C@@H](C)CC (stereo partly drawn) [Δ12LB (Trp9)-NH2 (56)] ({Hexanoyl(4ξ-Me)}-[dN][dY][dW][dOrn][Orn]G[dOrn]WWIG-NH2)	4 µg/mL	4 µg/mL (≈ 2.61 µM)	4 µg/mL	8 µg/mL	4 µg/mL	8 µg/mL	16 µg/mL
